This passage reports EC50 results from US20240132450A1, “MODULATORS OF G PROTEIN-COUPLED RECEPTOR 88” (ACADIA Pharmaceuticals Inc., priority 2020, published 2024).

Broadly, the pEC50 is −log10 of the EC50, conventionally taken in molar units.

pEC50: −log10 of the molar value.

The target of this test is hGPR88 receptor (Homo sapiens, UniProt Q9GZN0). The test is described as follows: hGPR88-HEK cAMP accumulation assay. As to conditions: GRP88 agonist activity (EC50), HEK-293 cells expressing human recombinant GPR88, forskolin 200 nM, High/Medium/Low bands. On the technique in general: cAMP levels reflect the balance of adenylyl cyclase and phosphodiesterase activity.
Chain of hGPR88 receptor (Q9GZN0 whole entry): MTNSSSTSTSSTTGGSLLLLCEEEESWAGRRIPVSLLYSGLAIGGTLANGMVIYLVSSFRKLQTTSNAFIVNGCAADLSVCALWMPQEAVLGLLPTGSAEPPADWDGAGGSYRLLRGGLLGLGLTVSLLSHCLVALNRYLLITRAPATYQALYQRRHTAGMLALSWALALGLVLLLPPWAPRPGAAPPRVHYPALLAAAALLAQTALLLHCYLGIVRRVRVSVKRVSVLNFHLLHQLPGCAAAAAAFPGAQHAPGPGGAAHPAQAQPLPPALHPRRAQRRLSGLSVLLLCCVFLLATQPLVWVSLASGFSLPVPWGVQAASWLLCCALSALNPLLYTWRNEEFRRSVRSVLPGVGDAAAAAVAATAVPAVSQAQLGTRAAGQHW
Method: Biological Assay 1: hGPR88-HEK cAMP Accumulation Assay
Cryopreserved vials of HEK-293 cells expressing human recombinant GPR88 receptor are re-suspended in KRH assay buffer and 5 μl of cell solution is suspended in test wells at a seeding density of 2500±500 cells per well using the multidrop to provide a final reaction volume of 10 μl containing 0.5% DMSO. Assay plate is incubated for 30 min at room temperature and the reaction is terminated by addition of 5 μl of each of the cAMP detection reagents of the cAMP Gi kit (Cisbio Bioassays, 62AM9PEJ), diluted in cell lysis buffer, to each well using the multidrop in the following order: first the cAMP-d2 conjugate, then the anti-cAMP cryptate conjugate. […] Raw counts were converted to cAMP concentrations via a standard curve before EC50 and Emax determination. Data is expressed as % decrease in forskolin stimulated cAMP compared to cells treated with vehicle alone in the same buffer and on the same plate.
For the compound `COCc1ccc(-c2ccc(N(C[C@@H](O)[C@@H](C)OC)C(=O)C3CC3c3ccccn3)cc2)cc1` (mixture of isomers) [Example 5, (rac-trans)-N-((2R,3R)-2-hydroxy-3-methoxybutyl)-N-(4′-methoxymethyl)-[1,1′-biphenyl]-4-yl)-2-(pyridin-2-yl)cyclopropane-1-carboxamide], the negative-log EC50 (pEC50) is under 5.30.

For `CCCc1ccc(C23CC(NC(=O)C4CC4c4ccccn4)(C2)C3)cc1` (racemic) [Example 34, (rac-trans)-N-(3-(4-propylphenyl)bicyclo[1.1.1]pentan-1-yl)-2-(pyridin-2-yl)cyclopropane-1-carboxamide], the pEC50 was 5.30 to 6.00.

For the compound `O=C(Nc1ccc(-c2ccc(CN3CCOCC3)cc2)cc1)C1CC1c1ccccn1` (racemic) [Example 37, (1R*,2R*)-N-(4′-(morpholinomethyl)-[1,1′-biphenyl]-4-yl)-2-(pyridin-2-yl)cyclopropane-1-carboxamide], the pEC50 is 5.30 to 6.00.

For `COCc1ccc(-c2ccc3c(c2)CCCN3C(=O)C2CC2c2ccccn2)cc1` (racemic) [Example 43, (6-(4-(methoxymethyl)phenyl)-3,4-dihydroquinolin-1(2H)-yl)((rac-trans)-2-(pyridin-2-yl)cyclopropyl)methanone], the pEC50 was under 5.30.

`COCc1ccc(C23CC(NC(=O)C4CC4c4ccccn4)(C2)C3)cc1` (racemic) [Example 44, (rac-trans)-N-(3-(4-(methoxymethyl)phenyl)bicyclo[1.1.1]pentan-1-yl)-2-(pyridin-2-yl)cyclopropane-1-carboxamide]: the negative-log EC50 (pEC50) is 5.30 to 6.00.

Turning to `CN(C)Cc1ccc(-c2ccc(NC(=O)C3CC3c3ccccn3)cc2)cc1` (racemic) [Example 48, (rac-trans)-N-(4′-(dimethylamino)methyl)-[1,1′-biphenyl]-4-yl)-2-(pyridin-2-yl)cyclopropane-1-carboxamide], the negative logarithm of the EC50 (pEC50) was under 5.30.

With `COCc1ccc(-c2ccc3c(c2)CCN3C(=O)C2CC2c2ccccn2)cc1` (racemic) [Example 50, (5-(4-(methoxymethyl)phenyl)indolin-1-yl)((rac-trans)-2-(pyridin-2-yl)cyclopropyl)methanone], the negative logarithm of the EC50 (pEC50) was 5.30 to 6.00.

`COCc1ccc(-c2ccc(NC(=O)C3CC3c3ccc(F)cc3)cc2)cc1` (racemic) [Example 54, (rac-trans)-2-(4-fluorophenyl)-N-(4′-(methoxymethyl)-[1,1′-biphenyl]-4-yl)cyclopropane-1-carboxamide]: the pEC50 is under 5.30.

With `COCc1ccc(-c2ccc(NC(=O)C3CC3c3ccccc3)cc2)cc1` (racemic) [Example 61, (rac-trans)-N-(4′-(methoxymethyl)-[1,1′-biphenyl]-4-yl)-2-phenylcyclopropane-1-carboxamide], the negative logarithm of the EC50 (pEC50) was under 5.30.

As for `COCc1ccc(-c2ccc(N(C)C(=O)C3CC3c3ccccn3)cc2)cc1` (racemic) [Example 73, (rac-trans)-N-(4′-(methoxymethyl)-[1,1′-biphenyl]-4-yl)-N-methyl-2-(pyridin-2-yl)cyclopropane-1-carboxamide], the pEC50 is under 5.30.

With `CN(C)Cc1ccc(-c2ccc(NC(=O)C3CC3c3ccccn3)nc2)cc1` (racemic) [Example 82, (rac-trans)-N-(5-(4-((dimethylamino)methyl)phenyl)pyridin-2-yl)-2-(pyridin-2-yl)cyclopropane-1-carboxamide], the negative logarithm of the EC50 (pEC50) is under 5.30.

On to `O=C(Nc1ccc(-c2ccc(CN3CCOCC3)cc2)cn1)C1CC1c1ccccn1` (racemic) [Example 83, (rac-trans)-N-(5-(4-(morpholinomethyl)phenyl)pyridin-2-yl)-2-(pyridin-2-yl)cyclopropane-1-carboxamide], for which the pEC50 is 5.30 to 6.00.

`CC(C)Oc1ccc(-c2ccc(NC(=O)C3CC3c3ccccn3)cc2)cc1` (racemic) [Example 90, (rac-trans)-N-(4′-isopropoxy-[1,1′-biphenyl]-4-yl)-2-(pyridin-2-yl)cyclopropane-1-carboxamide]: the pEC50 is 5.30 to 6.00.

Regarding `CC(C)Oc1ccc(-c2ccc(NC(=O)C3CC3c3ccccn3)cc2)cn1` (racemic) [Example 109, (rac-trans)-N-(4-(6-isopropoxypyridin-3-yl)phenyl)-2-(pyridin-2-yl) cyclopropane-1-carboxamide], the negative-log EC50 (pEC50) is 5.30 to 6.00.

Regarding `COCc1ccc(C23CC(NC(=O)C4CC4c4ccccn4)(C2)C3)cc1` (racemic) [Example 110, (rac-trans)-N-(3-(4-(methoxymethyl)phenyl)bicyclo[1.1.1]pentan-1-yl)-2-(pyridin-2-yl)cyclopropane-1-carboxamide], the negative-log EC50 (pEC50) was 5.30 to 6.00.

Consider `COCc1ccc(C23CC(NC(=O)C4CC4c4ccccn4)(C2)C3)cc1` (racemic) [Example 112, (rac-trans)-N-(3-(4-(methoxymethyl)phenyl)bicyclo[1.1.1]pentan-1-yl)-2-(pyridin-2-yl)cyclopropane-1-carboxamide], for which the pEC50 is under 5.30.

Turning to `COCc1ccc(-c2ccc(NC(=O)C3CC3c3ccccn3)nc2)cc1` (racemic) [Example 120, (rac-trans)-N-(5-(4-(methoxymethyl)phenyl)pyridin-2-yl)-2-(pyridin-2-yl)cyclopropane-1-carboxamide], the pEC50 is 5.30 to 6.00.

Turning to `COCc1ccc(-c2ccc(NC(=O)C3CC3c3ccccn3)cc2)cc1` (single isomer, unassigned) [Example 19, N-(4′-(methoxymethyl)-[1,1′-biphenyl]-4-yl)-2-(pyridin-2-yl)cyclopropane-1-carboxamide], the negative logarithm of the EC50 (pEC50) is under 5.30.

Take `O=C(Nc1ccc(-c2ccc(CN3CCOCC3)cc2)cc1)C1CC1c1ccccn1` (single isomer, unassigned) [Example 77, (1R*,2R*)-N-(4′-(morpholinomethyl)-[1,1′-biphenyl]-4-yl)-2-(pyridin-2-yl)cyclopropane-1-carboxamide]: the negative logarithm of the EC50 (pEC50) was 5.30 to 6.00.

Regarding `CC(c1ccc(-c2ccc(NC(=O)C(C)(C)Oc3ccc(F)cc3)cc2)cc1)N1CCOCC1` (single isomer, unassigned) [Example 122, 2-(4-fluorophenoxy)-2-methyl-N-(4′-(1-morpholinoethyl)-[1,1′-biphenyl]-4-yl)propanamide], the pEC50 is 5.30 to 6.00.

Consider `CC(c1ccc(-c2ccc(NC(=O)C(C)(C)Oc3ccc(F)cc3)cc2)cc1)N1CCOCC1` (single isomer, unassigned) [Example 123, 2-(4-fluorophenoxy)-2-methyl-N-(4′-(1-morpholinoethyl)-[1,1′-biphenyl]-4-yl)propanamide], for which the pEC50 was over 6.00.

Regarding `O=C(Nc1ccc(-c2ccc(OC3CC3)cc2)cc1)C1CC1c1ccccn1` (single isomer, unassigned) [Example 130, N-(4′-cyclopropoxy-[1,1′-biphenyl]-4-yl)-2-(pyridin-2-yl)cyclopropane-1-carboxamide], the pEC50 is under 5.30.

With `CC(C)Oc1ccc(-c2ccc(NC(=O)C3CC3c3ccccn3)cc2)cn1` (single isomer, unassigned) [Example 133, N-(4-(6-isopropoxypyridin-3-yl)phenyl)-2-(pyridin-2-yl)cyclopropane-1-carboxamide], the negative logarithm of the EC50 (pEC50) is 5.30 to 6.00.

With `CC(C)Oc1ccc(-c2ccc(NC(=O)C3CC3c3ccccn3)cc2)cn1` (single isomer, unassigned) [Example 134, N-(4-(6-isopropoxypyridin-3-yl)phenyl)-2-(pyridin-2-yl)cyclopropane-1-carboxamide], the negative logarithm of the EC50 (pEC50) is under 5.30.

With `COCc1ccc(-c2ccc(NC(=O)C(C)Oc3ccc(F)cc3)cc2)cc1` (centres unmarked) [Example 6], the pEC50 is under 5.30.

As for `CC(C)(Oc1ccc(F)cc1)C(=O)Nc1ccc(-c2ccc(C(F)(F)F)cc2)cc1` [Example 10, 2-(4-fluorophenoxy)-2-methyl-N-(4′-(trifluoromethyl)-[1,1′-biphenyl]-4-yl)propenamide], the pEC50 is under 5.30.

Consider `COc1ccc(-c2ccc(NC(=O)C(C)(C)Oc3ccc(F)cc3)cc2)cc1` [Example 11, 2-(4-fluorophenoxy)-N-(4′-methoxy-[1,1′-biphenyl]-4-yl)-2-methylpropanamide], for which the negative logarithm of the EC50 (pEC50) is under 5.30.

With `CC(C)(Oc1ccc(F)cc1)C(=O)Nc1ccc(-c2ccc(OC(F)(F)F)cc2)cc1` [Example 12, 2-(4-fluorophenoxy)-2-methyl-N-(4′-(trifluoromethoxy)-[1,1′-biphenyl]-4-yl)propanamide], the pEC50 is under 5.30.

On to `CCN(C(=O)C(C)(C)Oc1ccc(F)cc1)c1ccc(-c2ccc(COC)cc2)cc1` [Example 14, N-ethyl-2-(4-fluorophenoxy)-N-(4′-(methoxymethyl)-[1,1′-biphenyl]-4-yl)-2-methylpropanamide], for which the pEC50 is 5.30 to 6.00.

For `COCCN(C(=O)C(C)(C)Oc1ccc(F)cc1)c1ccc(-c2ccc(COC)cc2)cc1` [Example 15, 2-(4-fluorophenoxy)-N-(2-methoxyethyl)-N-(4′-(methoxymethyl)-[1,1′-biphenyl]-4-yl)-2-methylpropanamide], the negative-log EC50 (pEC50) was 5.30 to 6.00.

Consider `CN(C)C(=O)c1ccc(-c2ccc(NC(=O)C(C)(C)Oc3ccc(F)cc3)cc2)cc1` [Example 16, 4′-(2-(4-fluorophenoxy)-2-methylpropanamido)-N,N-dimethyl-[1,1′-biphenyl]-4-carboxamide], for which the negative-log EC50 (pEC50) was under 5.30.

Turning to `CCCN(C(=O)C(C)(C)Oc1ccc(F)cc1)c1ccc(-c2ccc(C)cc2)cc1` [Example 20, 2-(4-fluorophenoxy)-2-methyl-N-(4′-methyl-[1,1′-biphenyl]-4-yl)-N-propylpropanamide], the pEC50 is under 5.30.

Turning to `Cc1ccc(-c2ccc(N(CC(C)C)C(=O)C(C)(C)Oc3ccc(F)cc3)cc2)cc1` [Example 21, 2-(4-fluorophenoxy)-N-isobutyl-2-methyl-N-(4′-methyl-[1,1′-biphenyl]-4-yl)-2-methylpropanamide], the negative-log EC50 (pEC50) is under 5.30.

As to `CCCN(C(=O)C(C)(C)Oc1ccc(F)cc1)c1ccc(-c2ccc(COC)cc2)cc1` [Example 22, 2-(4-fluorophenoxy)-N-(4′-(methoxymethyl)-[1,1′-biphenyl]-4-yl)-2-methyl-N-propylpropanamide], the negative-log EC50 (pEC50) was 5.30 to 6.00.

Take `COCc1ccc(-c2ccc(N(CC(C)C)C(=O)C(C)(C)Oc3ccc(F)cc3)cc2)cc1` [Example 23, 2-(4-fluorophenoxy)-N-isobutyl-N-(4′-(methoxymethyl)-[1,1′-biphenyl]-4-yl)-2-methylpropanamide]: the negative-log EC50 (pEC50) is under 5.30.
